Measured values reported in ChEMBL document CHEMBL1201862, “PubChem BioAssay data set” (2004).
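Growth conditions: 96-well plates. Treatment: test compound, 48 hours, 5 concentrations. Analysis: linear interpolation between bracketing concentrations; unreached endpoints set to highest concentration. GI50 marks 50% less growth.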 The source made the active and inactive calls. Cut-off read from the data, not from the text of the source: active = GI50 up to about 1.1 µM and inactive = higher.

Key:
Experiment in all cases: NCI anticancer screen, dose series, 48 h
786-0 = tested on: 786-0
A498 = tested on: A498
EKVX = tested on: EKVX
HCC 2998 = tested on: HCC 2998
HOP-62 = tested on: HOP-62
HT-29 = tested on: HT-29
LOX IMVI = tested on: LOX IMVI
NCI-H226 = tested on: NCI-H226
NCI-H23 = tested on: NCI-H23
NCI-H522 = tested on: NCI-H522
OVCAR-4 = tested on: OVCAR-4
RPMI-8226 = tested on: RPMI-8226
SF-295 = tested on: SF-295
SK-MEL-28 = tested on: SK-MEL-28
SNB-19 = tested on: SNB-19
SNB-75 = tested on: SNB-75
UACC-257 = tested on: UACC-257
UACC-62 = tested on: UACC-62
MCF7 = tested on: MCF7
MDA-MB-435 = tested on: MDA-MB-435

Measured: GI50

C[C@H](O)CCC(=O)c1ccoc1
inactive: 786-0 > 100 µM | A498 > 100 µM | EKVX > 100 µM | HCC 2998 > 66.1 µM | HOP-62 > 100 µM | HT-29 > 100 µM | LOX IMVI > 100 µM | NCI-H226 > 100 µM | NCI-H23 > 100 µM | NCI-H522 > 100 µM | OVCAR-4 > 100 µM | RPMI-8226 > 100 µM | SF-295 > 100 µM | SK-MEL-28 > 100 µM | SNB-19 > 100 µM | SNB-75 > 34.5 µM | UACC-257 > 100 µM | UACC-62 > 100 µM

O=C(Cn1c2c(c3ccccc31)CCCC2)N1CCOCC1
inactive: 786-0 > 100 µM | A498 > 100 µM | EKVX > 100 µM | HCC 2998 > 100 µM | HOP-62 > 100 µM | HT-29 > 100 µM | LOX IMVI > 100 µM | MCF7 > 100 µM | MDA-MB-435 > 100 µM | NCI-H23 > 100 µM | OVCAR-4 44.4 µM | RPMI-8226 > 100 µM | SF-295 > 100 µM | SNB-19 > 100 µM | UACC-257 > 100 µM | UACC-62 > 100 µM

CN(C)CCCN1CCc2c([nH]c3ccccc23)C1c1cccnc1 (stereo not given)
inactive: 786-0 > 100 µM | A498 > 100 µM | EKVX > 100 µM | HCC 2998 > 100 µM | HOP-62 > 100 µM | HT-29 > 100 µM | LOX IMVI > 100 µM | NCI-H226 > 100 µM | NCI-H23 > 100 µM | NCI-H522 > 100 µM | OVCAR-4 > 100 µM | RPMI-8226 > 100 µM | SF-295 > 100 µM | SK-MEL-28 80 µM | SNB-19 > 100 µM | SNB-75 > 100 µM | UACC-257 > 100 µM | UACC-62 > 100 µM

NC(=S)N1N=C2c3ccccc3CC[C@@H]2[C@@H]1c1ccccc1
inactive: 786-0 6.89 µM | A498 13.2 µM | EKVX 16.3 µM | HCC 2998 6.78 µM | HOP-62 5.43 µM | HT-29 3.15 µM | LOX IMVI 5.86 µM | NCI-H226 4.65 µM | NCI-H23 4.68 µM | NCI-H522 1.5 µM | OVCAR-4 23.8 µM | RPMI-8226 5.61 µM | SF-295 3.13 µM | SK-MEL-28 9.84 µM | SNB-19 5.77 µM | SNB-75 3.62 µM | UACC-257 9.29 µM | UACC-62 4.74 µM

CC(C)OCN/C(N)=N\C#N
inactive: 786-0 82.4 µM | A498 > 100 µM | EKVX > 100 µM | HCC 2998 > 100 µM | HOP-62 > 100 µM | HT-29 43.8 µM | LOX IMVI 20.5 µM | NCI-H226 > 100 µM | NCI-H23 > 100 µM | NCI-H522 > 100 µM | OVCAR-4 > 100 µM | RPMI-8226 24 µM | SF-295 > 100 µM | SK-MEL-28 > 100 µM | SNB-19 > 100 µM | SNB-75 > 100 µM | UACC-257 > 100 µM | UACC-62 > 100 µM

O=C1Cc2c([nH]c3ccccc23)C2(CC3CCCCN13)OCCO2 (stereo not given)
inactive: 786-0 > 100 µM | A498 > 100 µM | EKVX > 100 µM | HCC 2998 90.6 µM | HOP-62 > 100 µM | HT-29 > 100 µM | MCF7 > 100 µM | MDA-MB-435 > 100 µM | NCI-H226 > 100 µM | NCI-H23 > 100 µM | OVCAR-4 > 100 µM | RPMI-8226 > 100 µM | SF-295 > 100 µM | SK-MEL-28 > 100 µM | SNB-19 > 100 µM | SNB-75 62.8 µM | UACC-257 > 100 µM | UACC-62 76.9 µM

CCCCOC(=O)C1CN2C(=NC1(C(F)(F)F)C(F)(F)F)Sc1ccccc12 (stereo not given)
inactive: 786-0 64.3 µM | A498 > 100 µM | EKVX 37.2 µM | HOP-62 82.4 µM | HT-29 22.5 µM | LOX IMVI 43.5 µM | MCF7 32.1 µM | MDA-MB-435 > 10 µM | NCI-H226 27 µM | NCI-H23 24.5 µM | OVCAR-4 45.5 µM | RPMI-8226 26.1 µM | SF-295 36.9 µM | SK-MEL-28 74.5 µM | SNB-19 96.2 µM | SNB-75 35.1 µM | UACC-257 36.1 µM | UACC-62 47.1 µM

CC(C(O)Cc1ccccc1)N(C)/N=N/c1ccc([N+](=O)[O-])cc1 (stereo not given)
inactive: 786-0 18.5 µM | EKVX 22.9 µM | HCC 2998 16.7 µM | HOP-62 16.7 µM | HT-29 18.6 µM | MCF7 24 µM | MDA-MB-435 18.9 µM | NCI-H226 19.5 µM | NCI-H23 20.1 µM | OVCAR-4 29.9 µM | RPMI-8226 16.9 µM | SF-295 19.8 µM | SK-MEL-28 18 µM | SNB-19 39.4 µM | SNB-75 23.1 µM | UACC-257 21.4 µM | UACC-62 18.8 µM

CC(=O)O[C@H]1CCC2[C@@H]3CCC4Cc5nc6c(nc5C[C@]4(C)C3CC[C@@]21C)CC1CC[C@@H]2C(CC[C@@]3(C)C2CC[C@@H]3C(C)CCCC(C)C)[C@@]1(C)C6 (stereo not given in full)
inactive: 786-0 > 100 µM | EKVX > 100 µM | HOP-62 > 100 µM | HT-29 > 100 µM | LOX IMVI > 100 µM | MCF7 > 100 µM | MDA-MB-435 > 100 µM | NCI-H226 > 100 µM | NCI-H23 > 100 µM | OVCAR-4 > 100 µM | RPMI-8226 > 100 µM | SF-295 > 100 µM | SK-MEL-28 > 100 µM | SNB-19 > 100 µM | SNB-75 > 100 µM | UACC-257 > 100 µM | UACC-62 > 100 µM

O=C1C2C=CC(n3[nH]c(=O)n(Cc4ccccc4)c3=O)CC2C(=O)N1c1ccc(Br)cc1 (stereo not given)
inactive: 786-0 > 100 µM | A498 56.8 µM | EKVX > 100 µM | HCC 2998 > 100 µM | HOP-62 > 100 µM | HT-29 > 100 µM | LOX IMVI > 100 µM | NCI-H226 > 100 µM | NCI-H23 > 100 µM | NCI-H522 > 100 µM | OVCAR-4 > 100 µM | RPMI-8226 > 100 µM | SF-295 > 100 µM | SK-MEL-28 > 100 µM | SNB-19 > 100 µM | SNB-75 47.1 µM | UACC-257 > 100 µM | UACC-62 > 100 µM

COC(=O)/C=C/c1c(CC=C(C)C)ncn1C
inactive: 786-0 38.5 µM | A498 > 84.1 µM | EKVX > 57.1 µM | HCC 2998 54.6 µM | HOP-62 42 µM | HT-29 14.4 µM | LOX IMVI 35.7 µM | NCI-H226 > 38.5 µM | NCI-H23 37.7 µM | NCI-H522 25.3 µM | OVCAR-4 84.9 µM | RPMI-8226 20.6 µM | SF-295 24.4 µM | SK-MEL-28 > 49.5 µM | SNB-19 26.1 µM | SNB-75 11.1 µM | UACC-257 61.7 µM | UACC-62 16.6 µM

C=C(CN(C)C)C(=O)c1ccccc1Cl
inactive: 786-0 19.9 µM | A498 36.8 µM | EKVX > 52.1 µM | HCC 2998 26.5 µM | HOP-62 > 100 µM | HT-29 19.1 µM | LOX IMVI 17.8 µM | NCI-H226 > 67.3 µM | NCI-H23 22.9 µM | NCI-H522 6.53 µM | OVCAR-4 20.4 µM | RPMI-8226 17.7 µM | SF-295 > 65.3 µM | SK-MEL-28 7.59 µM | SNB-19 63.1 µM | SNB-75 41.8 µM | UACC-257 18.8 µM | UACC-62 18.3 µM

CCOc1ccc(NC(=O)C2=C(C)NC(C)=C(C(=O)Nc3ccc(OCC)cc3)C2c2ccc([N+](=O)[O-])cc2)cc1
inactive: 786-0 29.3 µM | A498 6.32 µM | EKVX 29 µM | HCC 2998 22.1 µM | HOP-62 36.1 µM | HT-29 33.9 µM | LOX IMVI 42 µM | NCI-H226 26.8 µM | NCI-H23 28.2 µM | NCI-H522 22.6 µM | OVCAR-4 9.29 µM | RPMI-8226 13.8 µM | SF-295 38 µM | SK-MEL-28 34.2 µM | SNB-19 36 µM | SNB-75 29.4 µM | UACC-257 39.2 µM

O=C(Nc1ccccc1-c1nn(C(=S)Nc2ccccc2)c(=S)n(C(=S)Nc2ccccc2)c1=O)C(F)(F)F
inactive: 786-0 32.1 µM | A498 22.1 µM | EKVX 27.6 µM | HCC 2998 25.3 µM | HOP-62 29.3 µM | HT-29 27.7 µM | LOX IMVI 19.8 µM | NCI-H226 17.2 µM | NCI-H23 15.5 µM | NCI-H522 13.6 µM | OVCAR-4 17.1 µM | RPMI-8226 11.1 µM | SF-295 31.3 µM | SK-MEL-28 27.6 µM | SNB-19 35.4 µM | SNB-75 31.1 µM | UACC-257 14.2 µM | UACC-62 17.3 µM

O=c1[nH]c(=O)n(C2OC(CO)C(O)C2O)cc1OCC(F)(F)F (stereo not given)
inactive: 786-0 > 100 µM | A498 > 100 µM | EKVX > 100 µM | HCC 2998 > 100 µM | HOP-62 > 100 µM | HT-29 > 100 µM | LOX IMVI > 100 µM | NCI-H226 > 100 µM | NCI-H23 > 100 µM | NCI-H522 > 100 µM | OVCAR-4 > 100 µM | RPMI-8226 > 100 µM | SF-295 > 100 µM | SK-MEL-28 > 100 µM | SNB-19 > 100 µM | SNB-75 > 100 µM | UACC-257 > 100 µM | UACC-62 > 100 µM
